The data set is described as follows: Solubility check: surface profile of coated fluoropolymer film observed by optical microscope. It is filed as physicochemical. The following applies: for Solubility: 0.3 wt % with respect to Cytop CTL-809M in perfluorotributylamine/1,1,1,3,3,3-hexafluoropropan-2-ol/Cytop CTL-809M=90/5/5 (parts by weight), applied onto glass substrate, 2 μm film, dried; for Solubility / compatibility with resin: same test as Table 1, coated Cytop CTL-809M film. The procedure:
To a mixed solution of perfluorotributylamine/1,1,1,3,3,3-hexafluoropropan-2-ol/Cytop CTL-809M (manufactured by Asahi Glass Co., Ltd.)=90/5/5 (parts by weight), was added the compound represented by formula (1) according to the invention (any of Compounds 1-1 to 1-8) or any of Comparative Compounds C-1 to C-3 as shown below in an amount of 0.3 wt % with respect to the Cytop CTL-809M. Thereafter, the mixed solution was applied onto a glass substrate to a film thickness of 2 μm and dried.

The structures appear in SMILES notation.

`O=C(CCSc1nnc(S)s1)OCCC(F)(F)C(F)(F)C(F)(F)C(F)(F)C(F)(C(F)(F)F)C(F)(F)F` [Compound 1-1]: the Solubility result was “Compatible”.
`CC(CSc1nnc(S)s1)C(=O)OCCC(F)(F)C(F)(F)C(F)(F)C(F)(F)C(F)(C(F)(F)F)C(F)(F)F` (centres unmarked) [Compound 1-2]: the Solubility result is given as “Compatible”.
Consider `O=C(CCSc1nnc(S)s1)OCCC(F)(F)C(F)(F)C(F)(C(F)(F)F)C(F)(F)F` [Compound 1-3], for which the Solubility result is given as “Compatible”.
Still for that read-out and setting: to `O=C(CCSc1nnc(S)s1)OCCC(F)(F)C(F)(F)C(F)(F)C(F)(F)C(F)(F)C(F)(F)C(F)(C(F)(F)F)C(F)(F)F` [Compound 1-4] belongs “Compatible”.
Turning to `O=C(CSc1nnc(S)s1)OCCC(F)(F)C(F)(F)C(F)(F)C(F)(F)C(F)(C(F)(F)F)C(F)(F)F` [Compound 1-5], the Solubility result was “Compatible”.
Same read-out and setting: with `O=C(CCSc1nnc(S)s1)OCC(F)(F)C(F)(F)C(F)(F)C(F)(F)C(F)(C(F)(F)F)C(F)(F)F` [Compound 1-6] the entry was “Compatible”; with `O=C(CCSc1nnc(S)s1)OCCCC(F)(F)C(F)(F)C(F)(F)C(F)(F)C(F)(C(F)(F)F)C(F)(F)F` [Compound 1-7], “Compatible”; with `O=C(CCSc1nnc(S)s1)OCC(F)(F)C(F)(C(F)(F)C(F)(F)F)C(F)(F)C(F)(F)C(F)(F)C(F)(F)F` (centres unmarked) [Compound 1-8], “Compatible”.
As for `CC(C)CCCCCCOC(=O)CCSc1nnc(S)s1` [Compound C-1, reference compound], the Solubility entry is “Remain partially” and the “Solubility / compatibility with resin” value is “remained partially undissolved”.
In the same order, the values of `O=C(CSc1nnc(S)s1)OCCC(F)(F)C(F)(F)C(F)(F)C(F)(F)F` [Compound C-2, reference compound] are “Bleed out (compounds which bleed out are denoted by “Bleed out,”)” and “bled out on the resin surface”.
In the same order, the values of `O=C(CSc1nnc(S)s1)OCCC(F)(F)C(F)(F)C(F)(F)C(F)(F)C(F)(F)C(F)(F)C(F)(F)F` [Compound C-3, reference compound] are “Bleed out slightly” and “bled out on the resin surface”.

For the origin of these results see patent US9255077B2, “Fluorine atom-containing mercapto compound” (FUJIFILM CORPORATION, priority 2012, dated 2016).
